According to patent publication US10328092B2, “Methods and compositions for treatment of drug addiction” (The Royal Institution for the Advancement of Learning / …, priority 2015, dated 2019):

Tested on: D1-MSNs in the NAc core
Test: AMPA/NMDA ratio on D1-MSNs after in vivo treatment
Design: species or system mouse
Protocol: Repeated non-contingent administration of cocaine results in lower AMPA/NMDA ratios of excitatory inputs onto the NAc specifically on the D1-MSN subtype (Kim et al., 2011; Pascoli et al., 2012). To test whether the decrease in AMPA/NMDA ratios after repeated drug administration is due to the increase in TNFα expression, the AMPA/NMDA ratio was evaluated on D1 and D2 MSNs in the NAc core following cocaine or saline administration in WT and TNFα^−/− mice. […] This is consistent with the exocytosis of AMPARs observed with direct stimulation of D1Rs on MSNs (Mangiavacchi and Wolf, 2004). […] To test the hypothesis that potentiated D1-MSNs are more sensitive to TNFα, TNFα mice were treated with a single injection of cocaine and the effect of a low level of TNFα (10 ng/ml) on AMPA/NMDA ratios was evaluated. […] This treatment had no effect on D2-MSNs (FIG. 9B). To test whether cocaine-induced TNFα signaling would occlude further TNFα synaptic depression, wildtype animals were treated with cocaine for 5 days, and then treated striatel slices ex-vivo with TNFα (100 ng/ml). The AMPA/NMDA ratio on D1-MSNs (already reduced compared to saline treated animals; FIG. 5E) was not further reduced by treatment with TNFα (FIG. 5G).
Because depotentiation of MSNs reduced cocaine-induced behavioural sensitization (Pascoli et al., 2012), it was tested whether re-activation of microglia would depress NAc synapses and suppress sensitization. To do this, monophosphoryl lipid A (MPLA), a detoxified variant of LPS, was used (Casella and Mitchell, 2008). MPLA acts as a weak TLR4 agonist that is at least 100-fold less pyrogenic than LPS (Cluff, 2010) and is used in humans as an adjuvant for several vaccine formulations. […] It was verified that MPLA activates microglia in the striatum, by injecting 10 μg MPLA IP after 10 days withdrawal from cocaine. […] This is consistent with previous observations that MPLA acts as a microglia modulator (Michaud et al., 2013). […] It was next tested if MPLA treatment would depress synaptic strength in the NAc core. After 10 days of withdrawal, animals were injected with MPLA and evaluated 24 hours later for AMPA/NMDA ratios on D1-MSNs.
240 μm thick coronal slices containing the nucleus accumbens were prepared from brains of 8-9 week-old mice (with fluorescent D1-MSNs). After a 1 h recovery period, slices were placed in a submersion-type recording chamber and perfused (1.5-2 ml/min) at 30° C. with a bicarbonate-buffered artificial CSF saturated with 95% O2/5% CO2 and containing (in mM): 119 NaCl, 2.5 KCl, 1 NaH2PO4, 1.3 MgCl2, 2.5 CaCl2, 26.2 NaHCO3, 11 glucose, and 0.05 picrotoxin. Whole-cell voltage-clamp recordings from medium spiny neurons in the nucleus accumbens core were obtained under visual control using infrared-differential interference contrast microscopy. Whole-cell electrodes (2-4 MΩ) were filled with internal solution containing the following (in mM): 120 CsMeSO3, 15 CsCl, 8 NaCl, 0.2 EGTA, 10 HEPES, 2 Mg-ATP, 0.3 Na-GTP, 10 tetraethylammonium, and 5 QX-314 [5-N-(2,6-dimethylphenylcarbamoylmethyl)triethylammonium bromide] (308-310 mOsm). pH was adjusted to 7.3 with CsOH. Cells with series resistance above 25 MΩ or a 20% change over time were excluded. Synaptic currents were evoked using stainless-steel bipolar stimulating electrodes placed 100-150 μm rostral to the recorded neurons. EPSCs were acquired with an Axopatch 200B (Molecular Devices), filtered at 2 kHz, and digitized at 10 kHz. Acquisition and analysis was performed using pCLAMP 10.2 (Molecular Devices). To calculate AMPA/NMDA ratios, evoked synaptic responses were collected at −70 mV to measure AMPAR-mediated EPSCs and at +40 mV to measure NMDAR-mediated EPSCs. Typically, 20 responses were averaged to generate an average response. The peak AMPA response was used to calculate the AMPAR component and the amplitude at 40 ms post the AMPAR peak response was used to calculate the slower NMDA component at +40 mV to calculate the AMPA/NMDA ratio.

Compound | mean AMPA/NMDA ratio, D1 (TNFα−/− mice, 1 day cocaine 15 mg/kg) | mean AMPA/NMDA ratio, D1 (TNFα−/− mice, 5 days cocaine 15 mg/kg) | mean AMPA/NMDA ratio, D1 (WT mice, 1 day cocaine 15 mg/kg) | mean AMPA/NMDA ratio, D1 (WT mice, 5 days cocaine 15 mg/kg) | AMPA/NMDA ratio in D1-MSNs vs saline treated controls (MPLA 10 μg, 24 hours after injection, after 10 days withdrawal from cocaine)
COC(=O)[C@H]1[C@@H](OC(=O)c2ccccc2)C[C@@H]2CC[C@H]1N2C [cocaine] | 4.28±0.35 | 4.97±083 | 3.38±0.57 | 2.73±0.35 | 
monophosphoryl lipid A [MPLA] |  |  |  |  | significantly reduced
